Series [1] can be described thus: Cleavage of PPD (3) to benzoic acid by NHC precursors, Method B (MeCN co-solvent). Type of series: biochemical. Particulars: for Yield (%) of benzoic acid from cleavage of 3: MeCN/pH 7.4 phosphate buffer, 37° C., LCMS peak integration with respect to 3, background 5%; for Benzoic acid formation from 3 (in words): Method B screen of NHC precursors. Here is the method:
(§1) Dicarbonyl cleavage reactions were performed using either the method described in Vasan et al., An agent cleaving glucose-derived protein crosslinks in vitro and in vivo, Nature (1996) Vol. 382, pp. 275-278 (Method A) or a modified method with MeCN as a co-solvent (Method B).
(§2) 60 mM solution of dicarbonyl substrate (45 μmol) in MeCN (0.75 ml) was added to 20 mM solution of NHC (15 μmol) in 0.15 M pH 7.4 sodium phosphate buffer (0.75 ml) and kept stirred at 37° C. At stated times, 75 μl aliquots were taken, diluted with 50% MeCN/H2O (425 μl) and analyzed by LCMS with 2,4-dihydroxyquinoline (248 μM) as an internal standard. The cleavage products were quantified by peak integration against the calibration curves.
Thus, our first goal in these studies was to assess the ability of various NHC precursors to induce the degradation of the dicarbonyl model substrate (PPD, 3). To this end, we screened the thiazolium (4-6), benzothiazolium (7), triazolium (8,9) and imidazolium (10) halide substructures shown in Table 1.

The next series concerns mouse RBC. As to the kind of experiment: Storage of leukoreduced mouse blood in CPDA-1 at 4° C.: hemolysis and intact RBC count. The series is classed as cell-based. Conditions: CPDA-1 buffer. How it is done: FIG. 1 illustrates OCR6043-mediated prolonging of the integrity of stored RBCs. Leuko reduced mouse blood was stored under FDA-approved storage conditions (CPDA-1 buffer at 4° C.) for up to 13 days, in either OCR6043, control compound (structurally similar to OCR6043, but nonfunctional as a AGE crosslink breaker), or without any additive.
This solution was stored at 4° C. according to FDA-approved conditions for 13 days. […] The steps to collect HOD blood from mice and the addition of the FDA-approved storage buffer CPDA are described in Hendrickson et al., Transfusion of fresh murine red blood cells reverses adverse effects of older stored red blood cells, Transfusion (2011) Vol. 12, pp. 2695-2702.
We also counted the intact RBCs using a hemocytometer after 13 days of storage as also depicted in FIG. 1.

For series [2], the system named is HOD alloantigen on stored RBCs. Briefly: Immunogenicity of stored blood upon transfusion (anti-HOD IgG ELISA). The series is classed as in vivo, mouse. Conditions: blood stored 14 days, transfused into B6 mice, 14 days following transfusion. How it is done: Leuko-reduced mouse blood was stored under typical storage conditions for up to 14 days, in either OCR6043, control compound, or without any treatment. FIG. 2A illustrates an analysis of glucose in the serum from the stored blood was evaluated using a glucose oxidase enzymatic assay. […] FIG. 2B illustrates the AGE precursor levels on RBCs were measured using a dicarbonyl-specific fluorophore that was developed in-house. The time dependent increase in the AGE precursor levels was dampened in the presence of OCR6043. FIG. 2C illustrates mouse blood that was stored for 14 days, was evaluated for its immunogenicity upon transfusion, by testing for IgGs against an alloantigen on the RBCs (HOD=HEL-OVA-Duffy).
OCR6043 treatment decreases immunogenicity, and enhances post-transfusion recovery of stored mouse blood. Leukoreduced mouse blood was stored under typical storage conditions for up to 14 days in either OCR6043 or without any treatment. This mouse blood was evaluated for its immunogenicity upon transfusion by testing for IgGs against an alloantigen on the RBCs (HOD=HEL-OVA-Duffy).
As described herein, the stored blood has an HOD marker allowing facile detection after transfusion. We transfused […] of stored blood into B6 mice (not expressing the HOD antigen). […] The anti-HOD IgG response was evaluated using standard ELISA techniques described in Hendrickson et at.
For orientation: In an ELISA, binding on a coated surface is turned into a signal by an enzyme label.

Series [3] in a line: Cleavage of PPD by NHC precursors, Method A (alcoholic co-solvent). The series is classed as biochemical. Conditions: for Combined % Yield (PhCO2H, PhCO2Me): co-solvent MeOH. How it is done: as §1
PPD (21 μl, 156 μmol) was added to a murky solution of NHC (2 or 4, 71 μmol) in 50% MeOH/0.5 M pH 7.4 sodium phosphate buffer (3.5 ml/3.5 ml; final conc. 10 mM NHC, 22 mM PPD) and kept stirred at 37° C. Approximately 0.5 ml aliquots were taken at stated times and analyzed by HPLC. Experiments using EtOH or iPrOH as a co-solvent were done in the same manner. Concentrations of benzoic acid and benzoate esters were determined by peak integration against the calibration curves.
Having learned that ALT-711 performed best among NHCs evaluated for PPD cleavage, we sought to test its substrate scope versus its N-benzyl counterpart (4). We therefore measured product distribution and yield while varying the co-solvent used to solubilize dicarbonyl substrates. As summarized in Table 2, we first investigated the performance of alcoholic co-solvents in PPD cleavage reactions. […] Despite this, however, the product distributions differed substantially: ALT-711 (2) predominantly afforded benzoic acid (PhCO2H:PhCO2Me=3.2:1, Entry 2), whereas 4 mostly gave rise to methyl benzoate (PhCO2H:PhCO2Me=1:2.2, Entry 4). Further replacement of the co-solvent with EtOH and i-PrOH in 4-catalyzed reactions led to a decrease in the proportion of ester production, still without altering overall yield (Entries 5 and 6).

The conditions of series [4]: physiological conditions; cited from earlier work.
Series [5] in a line: NHC-mediated cleavage of bis-alkyl diketone 14, Method B. The series is classed as biochemical. Particulars: LCMS, with respect to dicarbonyl. Here is the method:
as §2
(§3) Our efforts to investigate the scope of thiazolium salt-mediated reactions with dicarbonyls began with bis-alkyl diketone 14 (Table 3, Entry 1). This substrate is cleaved cleanly by 2, and affords acid 18 in 82% yield. NHC precursor 4, on the other hand, provides 18 in only 14% yield (Entry 2). The efficiency of dicarbonyl cleavage reactions decreases substantially in the case of benzil (15, Entry 3), which affords benzoic acid in 14% and 1% yield following exposure to 2 and 4, respectively.

Series [6] can be described thus: NHC-mediated cleavage of benzil (15), Method B. The series is classed as biochemical. Particulars: LCMS, with respect to dicarbonyl. Here is the method:
as §2, §3

Series [7] can be described thus: NHC-mediated reaction with α-keto aldehyde phenylglyoxal (16), Method B. The series is classed as biochemical. Particulars: LCMS, phenylglyoxal alone gives 25% benzoic acid. How it is done:
as §2
Phenylglyoxal hydrate (16; 114 mg, 0.75 mmol, 2 eq) was added to a solution of ALT-711 (2; 100 mg, 0.37 mmol) in 50% MeCN/0.15 M pH 7.4 phosphate buffer (total vol. 37 ml) and kept stirred at room temperature for 15 mins. The reaction mixture was cooled to −20° C. to precipitate out sodium phosphate as white crystals. The supernatant was transferred, and the residue was washed with MeCN and combined with the supernatant. This yellow clear solution was concentrated at room temperature to remove MeCN and purified by HPLC (16-27MeCN over 31 min). […]
Reactions involving α-keto aldehyde derivatives 16 and 17 followed an unexpected course. Treatment of these substrates with 2 led to instantaneous, high-yield production of a diastercomeric mixture of cycloadducts (19 and 20) that decompose to complex mixtures under the reaction conditions with half-lives of approximately 3 h Structures were determined based on in-depth NMR analysis (see Supplementary Material).

Marks after values point to notes of the source that are not given here.

For `Cc1sc[n+](Cc2ccccc2)c1C`, in series [1] (Method B), the “Yield (%) of benzoic acid from cleavage of 3” value (“Yield (%) of benzoic acid” below) is 20%. With `O=C(C[n+]1ccsc1)c1ccccc1.[Br-]` [Compound 1, N-phenacylthiazolium bromide], the “RBC viability / intact RBCs (hemocytometer)” value in the series on mouse RBC (13 days) is reported as “higher levels of intact RBCs”. The “Immunogenicity upon transfusion (IgG against HOD alloantigen)” value in series [2] is “lower immunogenicity”. The “Combined % Yield (PhCO2H, PhCO2Me)” value in series [3] was 39%. The Half-life of decomposition in series [4] is 44 min. `Cc1sc[n+](Cc2ccccc2)c1C.[Cl-]` [Compound 4, 3-benzyl-4,5-dimethylthiazol-3-ium chloride]: the “% Yield of acid 18 from substrate 14” value in series [5] is recorded as 14%. The “Benzoic acid formation from 3 (in words)” value in series [1] is “substantially lower yields”. Further, the “Combined % Yield (PhCO2H)” value in series [1] (co-solvent MeCN, Method B, LCMS, with respect to dicarbonyl) is 20%. In addition, in series [3] (co-solvent EtOH), the “Combined % Yield (PhCO2H, PhCO2Et)” value worked out at 60%. Also, in series [3], the “Combined % Yield (PhCO2H, PhCO2Me)” value turned out to be 62%. For the same compound, the “Combined % Yield (PhCO2H, PhCO2iPr)” value in series [3] (co-solvent i-PrOH) was 58%. The “% Yield of PhCO2H from substrate 15 (benzil)” value in series [6] is listed as 1%. In addition, in series [7], the “% Yield of PhCO2H from substrate 16” value is reported as 30^c %. As for `Cc1c(CCO)sc[n+]1Cc1ccccc1.[Cl-]` [Compound 5], in series [1], the “Benzoic acid formation from 3 (in words)” value is on record as “substantially lower yields”. With `[Cl-].c1ccc(C[n+]2csc3ccccc32)cc1` [Compound 7], the “Benzoic acid formation from 3 (in words)” value in series [1] was “no observable levels of benzoic acid”.

`Cn1c[n+](Cc2ccccc2)cn1.[Cl-]` [Compound 8]: in series [1], the “Benzoic acid formation from 3 (in words)” value is listed as “no observable levels of benzoic acid”. Take `Cn1c[n+](CC(=O)c2ccccc2)cn1.[Cl-]` [Compound 9]: the “Benzoic acid formation from 3 (in words)” value in series [1] is recorded as “restores the reactivity to a small extent”. On to `Cn1cc[n+](CC(=O)c2ccccc2)c1.[Cl-]` [Compound 10], for which, in series [1], the “Benzoic acid formation from 3 (in words)” value is on record as “did not produce any benzoic acid”. `Cn1c[n+](CC(=O)c2ccccc2)cn1.[Cl-]` [MPTC, 1-methyl-4-phenacyl-triazolium chloride]: the “Hemolysis of stored blood (supernatant appearance)” value in the series on mouse RBC (up to 13 days, 12 mM) was “hemolysis”. As to `Cc1sc[n+](CC(=O)c2ccccc2)c1C.[Cl-]` [drawing 8], the “Yield (%) of benzoic acid” value in series [1] (Method B) turned out to be 60%.

For `Cc1c(CCO)sc[n+]1Cc1ccccc1.[Cl-]` [drawing 10], the “Yield (%) of benzoic acid” value in series [1] (Method B) came out at 14%. For the compound `[Cl-].c1ccc(C[n+]2csc3ccccc32)cc1` [drawing 12], the “Yield (%) of benzoic acid” value in series [1] (Method B) is on record as 0^b %. `Cn1c[n+](Cc2ccccc2)cn1.[Cl-]` [drawing 13]: in series [1] (Method B), the “Yield (%) of benzoic acid” value is 0^b %. Consider `Cn1c[n+](CC(=O)c2ccccc2)cn1.[Cl-]` [drawing 14], for which, in series [1] (Method B), the “Yield (%) of benzoic acid” value was found to be 12%. For the compound `Cn1cc[n+](CC(=O)c2ccccc2)c1.[Cl-]` [drawing 15], the “Yield (%) of benzoic acid” value in series [1] (Method B) was 0^b %.

The values are drawn from patent US9622469B2, “Crosslink breakers for preservation of biological substances” (priority 2013, dated 2017).
